Laboratory results from patent US12281122B1, “PI3K inhibitors” (Cogent Biosciences, Inc., priority 2023, dated 2025).

Assays:
[1] = test system: T47D (PI3Kα-H1047R) cell line; experiment: HTRF phospho-AKT(S473) cell assay in T47D cells; type: cell-based, human; conditions: Homo sapiens; T47D (PI3Kα-H1047R) cells, HTRF phospho-AKT(S473), 2 hours compound incubation
In short: (§1)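 HTRF read-out of phospho-AKT(S473) in lysates gave IC50 values after 2 h compound exposure at 37° C. Dose series was 12 points at 1:3, topping at 5 μM for T47D and 10 μM for SKBR3. Only SKBR3 received 70 ng/ml PDGF-BB during the last 15 minutes.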

[2] = test system: SKBR3 (PI3Kα-Wild Type) cell line; experiment: HTRF phospho-AKT(S473) cell assay in SKBR3 cells; type: cell-based, human; conditions: Homo sapiens, SK-BR-3; SKBR3 (PI3Kα-Wild Type) cells, HTRF phospho-AKT(S473), 2 hours compound incubation, PDGF-BB stimulated
In short: as §1

SMILES | IC50 [1] [nM] | IC50 [2] [nM]
COc1cnc(C2CCN(c3nc4c([C@@H](C)Nc5ccc(Cl)nc5C(=O)NS(C)(=O)=O)cc(C)cc4c(=O)n3C)CC2)cn1 [Compound 408, (R)-6-chloro-3-((1-(2-(4-(5-methoxypyrazin-2-yl)piperidin-1-yl)-3,6-dimethyl-4-oxo-3,4-dihydroquinazolin-8-yl)ethyl)amino)-N-(methylsulfonyl) picolinamide] | < 250 | ≥ 5000
Cc1cc([C@@H](C)Nc2ccc(Cl)nc2C(=O)NS(C)(=O)=O)c2nc(N3C[C@@H]4[C@H](C3)[C@H]4c3cnn(C)n3)n(C)c(=O)c2c1 [Compound 409, 6-chloro-3-(((R)-1-(3,6-dimethyl-2-((1R,5S,6R)-6-(2-methyl-2H-1,2,3-triazol-4-yl)-3-azabicyclo[3.1.0]hexan-3-yl)-4-oxo-3,4-dihydroquinazolin-8-yl)ethyl)amino)-N-(methylsulfonyl) picolinamide] | < 250 | 1000 to 5000
Cc1cc([C@@H](C)Nc2ccc(Cl)nc2C(=O)NS(C)(=O)=O)c2nc(N3CCC(c4nn(C)cc4F)CC3)n(C3CC3)c(=O)c2c1 [Compound 410, (R)-6-chloro-3-((1-(3-cyclopropyl-2-(4-(4-fluoro-1-methyl-1H-pyrazol-3-yl)piperidin-1-yl)-6-methyl-4-oxo-3,4-dihydroquinazolin-8-yl)ethyl)amino)-N-(methylsulfonyl) picolinamide] | 250 to 500 | ≥ 5000
C[C@@H](Nc1ccc(Cl)nc1C(=O)NS(C)(=O)=O)c1cc(F)cc2c(=O)n(C)c(N3C[C@@H]4[C@H](C3)[C@H]4c3cnn(C)c3)nc12 [Compound 411, 6-chloro-3-(((R)-1-(6-fluoro-3-methyl-2-((1R,5S,6S)-6-(1-methyl-1H-pyrazol-4-yl)-3-azabicyclo[3.1.0]hexan-3-yl)-4-oxo-3,4-dihydroquinazolin-8-yl)ethyl)amino)-N-(methylsulfonyl) picolinamide] | < 250 | 1000 to 5000
Cc1cc([C@@H](C)Nc2ccc(Cl)nc2C(=O)NS(C)(=O)=O)c2nc(N3CCC(c4c(F)cnn4C)CC3)n(C)c(=O)c2c1 [Compound 412, (R)-6-chloro-3-((1-(2-(4-(4-fluoro-1-methyl-1H-pyrazol-5-yl)piperidin-1-yl)-3,6-dimethyl-4-oxo-3,4-dihydroquinazolin-8-yl)ethyl)amino)-N-(methylsulfonyl) picolinamide] | < 250 | 1000 to 5000
Cc1cc([C@@H](C)Nc2ccc(Cl)nc2C(=O)NS(C)(=O)=O)c2nc(N3CCC(c4ccn(C(F)F)n4)CC3)n(C)c(=O)c2c1 [Compound 413, (R)-6-chloro-3-((1-(2-(4-(1-(difluoromethyl)-1H-pyrazol-3-yl)piperidin-1-yl)-3,6-dimethyl-4-oxo-3,4-dihydroquinazolin-8-yl)ethyl)amino)-N-(methylsulfonyl) picolinamide] | < 250 | 1000 to 5000
Cc1cc([C@@H](C)Nc2ccc(Cl)nc2C(=O)NS(C)(=O)=O)c2nc(N3CCC(c4ccnn4C(F)F)CC3)n(C)c(=O)c2c1 [Compound 414, (R)-6-chloro-3-((1-(2-(4-(1-(difluoromethyl)-1H-pyrazol-5-yl)piperidin-1-yl)-3,6-dimethyl-4-oxo-3,4-dihydroquinazolin-8-yl)ethyl)amino)-N-(methylsulfonyl) picolinamide] | < 250 | 1000 to 5000
Cc1cc([C@@H](C)Nc2ccc(Cl)nc2C(=O)NS(C)(=O)=O)c2nc(N3C[C@@H]4[C@H](C3)[C@H]4c3nn(C)cc3C)n(C)c(=O)c2c1 [Compound 415, 6-chloro-3-(((R)-1-(2-((1R,5S,6R)-6-(1,4-dimethyl-1H-pyrazol-3-yl)-3-azabicyclo[3.1.0]hexan-3-yl)-3,6-dimethyl-4-oxo-3,4-dihydroquinazolin-8-yl)ethyl)amino)-N-(methylsulfonyl) picolinamide] | < 250 | 1000 to 5000
